Measurements published in ChEMBL document CHEMBL5131432, “Novel 2,4-disubstituted quinazoline analogs as antibacterial agents with improved cytotoxicity profile: Modification of the benzenoid part” (Bioorg Med Chem Lett, 2022).
In brackets after ≈: the same amount, converted by molar mass.

Key:
[1] = tested on: Enterococcus faecalis; test: Antibacterial activity against Enterococcus faecalis DSM-20478 assessed as bacterial growth inhibition; assay type: functional
[2] = tested on: Escherichia coli; test: Antibacterial activity against wild type Escherichia coli DSM-11116 assessed as bacterial growth inhibition; assay type: functional
[3] = tested on: Staphylococcus aureus; test: Antibacterial activity against methicillin-sensitive Staphylococcus aureus Newman assessed as bacterial growth inhibition; assay type: functional
[4] = tested on: Staphylococcus aureus; test: Antibacterial activity against methicillin-resistant and vancomycin-intermediate Staphylococcus aureus Mu50 assessed as bacterial growth inhibition; assay type: functional
[5] = tested on: Streptococcus pneumoniae; test: Antibacterial activity against Streptococcus pneumoniae DSM-20566 assessed as bacterial growth inhibition; assay type: functional
[6] = tested on: Escherichia coli; test: Antibacterial activity against Escherichia coli K12 harbouring TolC-deficient mutant assessed as bacterial growth inhibition; assay type: functional
[7] = tested on: Mycolicibacterium smegmatis; test: Antibacterial activity against Mycobacterium smegmatis mc2 155 assessed as bacterial growth inhibition; assay type: functional
[8] = tested on: Streptococcus pneumoniae; test: Antibacterial activity against penicillin-resistant Streptococcus pneumoniae DSM-11865 assessed as bacterial growth inhibition; assay type: functional
[9] = tested on: Staphylococcus aureus; test: Antibacterial activity against methicillin-resistant Staphylococcus aureus N315 assessed as bacterial growth inhibition; assay type: functional
[10] = tested on: Enterococcus faecium; test: Antibacterial activity against Enterococcus faecium DSM-20477 assessed as bacterial growth inhibition; assay type: functional
[11] = Chemical stability of compound in DMSO assessed as change in retardation factor incubated for 2 days; assay type: physicochemical; details: 48 h; time 2 day
[12] = Chemical stability of compound in DMSO assessed as change in physico-chemical properties incubated for 2 days; assay type: physicochemical; details: 48 h; time 2 day
[13] = Chemical stability of compound in DMSO assessed as change in mass and purity incubated for 2 days by LC-MS analysis; assay type: physicochemical; details: 48 h; time 2 day
[14] = Stability of the compound in presence of 25kGy gamma irradiation assessed as change in mass and purity by LC-MS analysis; assay type: physicochemical
[15] = Cytotoxicity against human HepG2 cells assessed as inhibition of cell growth; assay type: toxicity, cell-based

## CCCCNc1nc(SCCCC)nc2nn(CCCC)cc12
[1]
  MIC: > 128 µg/mL
[2]
  MIC: > 128 µg/mL
[3]
  MIC: > 128 µg/mL
[4]
  MIC: > 128 µg/mL
[5]
  MIC: > 128 µg/mL
[6]
  MIC: > 128 µg/mL
[7]
  MIC: > 128 µg/mL
[8]
  MIC: > 128 µg/mL
[9]
  MIC: > 128 µg/mL
[10]
  MIC: > 128 µg/mL

## CCCCNc1nc(SCCCC)nc2ccc(Cl)cc12
[1]
  MIC: > 128 µg/mL
[2]
  MIC: > 128 µg/mL
[3]
  MIC: > 128 µg/mL
[4]
  MIC: > 128 µg/mL
[5]
  MIC: > 128 µg/mL
[6]
  MIC: > 128 µg/mL
[7]
  MIC: > 128 µg/mL
[8]
  MIC: > 128 µg/mL
[9]
  MIC: > 128 µg/mL
[10]
  MIC: > 128 µg/mL

## CN[C@H](CC(C)C)C(=O)N[C@H]1C(=O)N[C@@H](CC(N)=O)C(=O)N[C@H]2C(=O)N[C@H]3C(=O)N[C@H](C(=O)N[C@H](C(=O)O)c4cc(O)cc(O)c4-c4cc3ccc4O)[C@H](O)c3ccc(c(Cl)c3)Oc3cc2cc(c3O[C@@H]2O[C@H](CO)[C@@H](O)[C@H](O)[C@H]2O[C@H]2C[C@](C)(N)[C@H](O)[C@H](C)O2)Oc2ccc(cc2Cl)[C@H]1O [VANCOMYCIN]
[1]
  MIC: 0.5 µg/mL (≈ 0.345 µM)
[2]
  MIC: > 64 µg/mL
[4]
  MIC: 8 µg/mL (≈ 5.52 µM)
[5]
  MIC: 0.5 µg/mL (≈ 0.345 µM)
[6]
  MIC: > 64 µg/mL
[7]
  MIC: 8 µg/mL (≈ 5.52 µM)
[8]
  MIC: 1 µg/mL (≈ 0.69 µM)

## CCCCNc1nc(SCCCC)nc2ccc(F)cc12
[1]
  MIC: > 128 µg/mL
[2]
  MIC: > 128 µg/mL
[3]
  MIC: > 128 µg/mL
[4]
  MIC: > 128 µg/mL
[5]
  MIC: > 128 µg/mL
[6]
  MIC: > 128 µg/mL
[7]
  MIC: > 128 µg/mL
[8]
  MIC: > 128 µg/mL
[9]
  MIC: > 128 µg/mL
[10]
  MIC: > 128 µg/mL

## CCCCNc1nc(SCCCC)nc2cc(Br)ccc12
[1]
  MIC: > 128 µg/mL
[2]
  MIC: > 128 µg/mL
[3]
  MIC: > 128 µg/mL
[4]
  MIC: > 128 µg/mL
[5]
  MIC: > 128 µg/mL
[6]
  MIC: > 128 µg/mL
[7]
  MIC: > 128 µg/mL
[8]
  MIC: > 128 µg/mL
[9]
  MIC: > 128 µg/mL
[10]
  MIC: > 128 µg/mL

## CCCCNc1nc(SC)nc2n[nH]cc12
[1]
  MIC: > 128 µg/mL
[2]
  MIC: > 128 µg/mL
[3]
  MIC: 64 µg/mL (≈ 270 µM)
[4]
  MIC: 64 µg/mL (≈ 270 µM)
[5]
  MIC: > 128 µg/mL
[6]
  MIC: 64 µg/mL (≈ 270 µM)
[7]
  MIC: > 128 µg/mL
[8]
  MIC: > 128 µg/mL
[9]
  MIC: 64 µg/mL (≈ 270 µM)
[10]
  MIC: > 128 µg/mL

## CCCCNc1nc(SCCCC)nc2ccc(-c3cccc(OC)c3)cc12
[1]
  MIC: > 128 µg/mL
[2]
  MIC: > 128 µg/mL
[3]
  MIC: > 128 µg/mL
[4]
  MIC: > 128 µg/mL
[5]
  MIC: > 128 µg/mL
[6]
  MIC: > 128 µg/mL
[7]
  MIC: > 128 µg/mL
[8]
  MIC: > 128 µg/mL
[9]
  MIC: > 128 µg/mL
[10]
  MIC: > 128 µg/mL

## CCCCNc1nc(SCCCC)nc2n[nH]cc12
[11]
  Stability: Stable
[1]
  MIC: > 128 µg/mL
[2]
  MIC: > 128 µg/mL
[3]
  MIC: > 128 µg/mL
[12]
  Stability: Stable
[4]
  MIC: > 128 µg/mL
[5]
  MIC: > 128 µg/mL
[13]
  Stability: Stable
[6]
  MIC: 4 µg/mL (≈ 14.3 µM)
[7]
  MIC: > 128 µg/mL
[8]
  MIC: > 128 µg/mL
[9]
  MIC: > 128 µg/mL
[10]
  MIC: > 128 µg/mL
[14]
  Stability: Stable

## CCCCNc1nc(SCCCC)nc2ccc(-c3cccc(CO)c3)cc12
[1]
  MIC: > 128 µg/mL
[2]
  MIC: > 128 µg/mL
[3]
  MIC: > 128 µg/mL
[4]
  MIC: > 128 µg/mL
[5]
  MIC: > 128 µg/mL
[6]
  MIC: > 128 µg/mL
[7]
  MIC: > 128 µg/mL
[8]
  MIC: > 128 µg/mL
[9]
  MIC: > 128 µg/mL
[10]
  MIC: > 128 µg/mL

## CC(=O)NC[C@H]1CN(c2ccc(N3CCOCC3)c(F)c2)C(=O)O1 [LINEZOLID]
[2]
  MIC: > 64 µg/mL
[3]
  MIC: 1 µg/mL (≈ 2.96 µM)
[6]
  MIC: 16 µg/mL (≈ 47.4 µM)
[7]
  MIC: 4 µg/mL (≈ 11.9 µM)
[10]
  MIC: 4 µg/mL (≈ 11.9 µM)

## CCCCNc1nc(SCCCC)nc2ccc(-c3cccc(C(=O)O)c3)cc12
[1]
  MIC: 8 µg/mL (≈ 19.5 µM)
[2]
  MIC: > 128 µg/mL
[3]
  MIC: 8 µg/mL (≈ 19.5 µM)
[4]
  MIC: 8 µg/mL (≈ 19.5 µM)
[5]
  MIC: 4 µg/mL (≈ 9.77 µM)
[6]
  MIC: > 128 µg/mL
[15]
  IC50: > 37 µg/mL
[7]
  MIC: > 128 µg/mL
[8]
  MIC: 16 µg/mL (≈ 39.1 µM)
[9]
  MIC: 8 µg/mL (≈ 19.5 µM)
[10]
  MIC: 8 µg/mL (≈ 19.5 µM)

## CCCCNc1nc(SCCCC)nc2ccc(-c3cn[nH]c3)cc12
[1]
  MIC: > 128 µg/mL
[2]
  MIC: > 128 µg/mL
[3]
  MIC: > 128 µg/mL
[4]
  MIC: > 128 µg/mL
[5]
  MIC: > 128 µg/mL
[6]
  MIC: > 128 µg/mL
[7]
  MIC: > 128 µg/mL
[8]
  MIC: > 128 µg/mL
[9]
  MIC: > 128 µg/mL
[10]
  MIC: > 128 µg/mL

## CCCCNc1nc(SCCCC)nc2cc(-c3ccccc3)ccc12
[1]
  MIC: > 128 µg/mL
[2]
  MIC: > 128 µg/mL
[3]
  MIC: > 128 µg/mL
[4]
  MIC: > 128 µg/mL
[5]
  MIC: > 128 µg/mL
[6]
  MIC: > 128 µg/mL
[7]
  MIC: > 128 µg/mL
[8]
  MIC: > 128 µg/mL
[9]
  MIC: > 128 µg/mL
[10]
  MIC: > 128 µg/mL

## CCCCNc1nc(SCCCC)nc2c1cnn2CCCC
[1]
  MIC: > 128 µg/mL
[2]
  MIC: > 128 µg/mL
[3]
  MIC: > 128 µg/mL
[4]
  MIC: > 128 µg/mL
[5]
  MIC: 8 µg/mL (≈ 23.8 µM)
[6]
  MIC: > 128 µg/mL
[7]
  MIC: > 128 µg/mL
[8]
  MIC: > 128 µg/mL
[9]
  MIC: > 128 µg/mL
[10]
  MIC: > 128 µg/mL
